In patent publication US4542153A, “Methods for changing calcium metabolism within the cells of a mammal” (The Ohio State University Research Foundation, priority 1983, dated 1985):

Assays:
[1] = tested on: calcium-induced arrhythmias in rats; assay: Calcium-induced arrhythmias (CaCl2 injected i.v. into anesthetized rats)
Description: The experimental method used was that described in Lynch J. J., Rahwan R. G., Witiak D. T.: Effects of 2-substituted-3-dimethylamino-5,6-methylenedioxyindenes on calcium-inducedarrhythmias, J. Cardiovasc. Pharmacol. 3: 49-60 (1981). Male Sprague-Dawley rats weighing 180-250 grams were anesthetized with sodium pentobarbital and a cannula was inserted into the left jugular vein for drug administration. Electrocardiograph equipment was connected to the rat and the lead II was continuously monitored. The compound under test, dissolved in 5% dextrose solution, was administered into the jugular vein of anesthetized rats over a 40 second period. Ten minutes after this treatment, an acute dose of 1 ml/kg of a 10% CaCl2.2H2 O solution was injected into the jugular vein over a period of 10 seconds. The arrhythmias resulting from the calcium administration were graded according to the following criteria: (a) initial change in heart rate following calcium administration; (b) incidences of sinoatrial block, atrioventricular block, ectopic beats, and ventricular flutter and fibrillation; (c) time required for reversion to control ECG; and (d) incidence of mortality.

[2] = tested on: chloroform anoxia arrhythmia in mice; assay: Chloroform Anoxia Assay (chloroform-induced ventricular fibrillation); type: in vivo, Female Swiss albino mice
Method: The same four compounds were tested for their ability to protect mice from chloroform anoxia by the classical chloroform inhalation procedure described in Lawson J. W.: Antiarrhythmic activity of some isoquinoline derivatives determined by a rapid screening procedure in the mouse, J. Pharmacol. Exp. Ther. 160: 22-31, (1968). In this method, chloroform inhalation leading to respiratory arrest produces ventricular fibrillation. Female Swiss albino mice procured from Laboratory Supply Company, Indianapolis, Indiana, weighing 16-22 g, were pretreated intraperitoneally with the compound under test dissolved in a 5% dextrose solution 10 minutes before exposure to chloroform in a closed container containing chloroform-saturated cotton. The mice were removed from the chloroform atmosphere immediately after respiratory arrest and the electrocardiograph lead II monitored. The ED 50 and 95% confidence limits calculated for the anti-arrhythmic agents by the standard method of Litchfield and Wilcoxon.

mice = assay: Toxicity Tests (intraperitoneal LD50); type: in vivo; details: i.p., table: mean values and 95% confidence limits

Q: How did the mortality rate ([1]; 0.5 mg/kg, i.v.) turn out when `CCCCC1=Cc2cc3c(cc2C1[N+](C)(C)C)OCO3.[I-]` (stereo not shown) [Q-bu-MDI, 2-Butyl-5,6-methylenedioxyindene-1-trimethylammonium iodide] was run?
A: zero

Q: And the protection against arrhythmia ([1]; 0.5 mg/kg, i.v.)?
A: almost complete protection

Q: And the “protection against calcium-induced mortality” value ([1]; 0.5 mg/kg, i.v.)?
A: complete protection against calcium-induced mortality

Q: What about the “protection against the calcium-induced bradycardia” value ([1]; 0.5 mg/kg, i.v.) of the same compound?
A: partial protection

Q: What about the “time for reversion to a normal electrocardiogram” value ([1]; 0.5 mg/kg, i.v.) of the same compound?
A: significantly reduced

Q: What about the “effectiveness in suppressing arrhythmias relative to pr-MDI and bu-MDI” value ([1]; calcium-induced arrhythmias) of the same compound?
A: 7-8 times

Q: And the “concentration effective against calcium-induced arrhythmias” value ([1]; i.v., 10 min before CaCl2)?
A: 0.5 mg/kg

Q: What about the deleterious side effects ([1]; i.v., Q-bu-MDI at 0.5 mg/kg, pr-MDI and bu-MDI at 3.75 mg/kg) of the same compound?
A: no substantial deleterious side effects

Q: What about the “Therapeutic Index (LD50/ED50)” value ([2]; ED50 from chloroform anoxia, LD50 i.p.) of the same compound?
A: 6.2

Q: And the ED50 ([2]; i.p., 10 min before chloroform, table: mean values and 95% confidence limits, n = 40)?
A: 10.5 mg/kg

Q: And the “ED50 compared with quinidine (statistical test)” value ([2]; i.p., p<<0.05)?
A: significantly smaller than that of quinidine

Q: What about the “Antiarrhythmic Potency” value ([2]; quinidine = 1.00, chloroform anoxia) of the same compound?
A: 6.38

Q: And the LD50 (mice)?
A: 65 mg/kg
